Test results taken from publication PMC6814738, “Bacterial MgrB peptide activates chemoreceptor Fpr3 in mouse accessory olfactory system and drives avoidance behaviour” (Nature Communications, 2019).
Values joined by “and” are separate entries in the source; they are usually repeats but may differ in a detail not shown here. Equal values may be shown once.

How the values were obtained:
[1] = tested on: vomeronasal sensory neurons (VSNs); assay: VNO whole-mount en face confocal Ca2+ imaging of VSN dendritic knobs (Fig. 4, 5); assay type: cell-based, mouse; parameters: key to Ca2+ response of f-MKKFRW-responsive VSN knobs / Fpeak: normalised to knob resting fluorescence F0 before stimulation
Description: Mice (6–20 week old, either sex) were euthanized by CO2 inhalation according to institutional guidelines. After decapitation, the skin was removed from the skull, the mandible was cut off and the cranium was opened by a sagittal cut, 1–2-mm right-lateral in parallel to the midline. The palate and the right incisor were removed and the hemisected skull was mounted in low-melting agarose (4%). The bony capsule of the VNO was opened with fine forceps and the nonsensory epithelium was stripped off. Tissue and cell debris were gently washed off, and the en face preparation was superfused with physiological S1 solution (120 mM NaCl, 25 mM NaHCO3, 5 mM KCl, 1 mM MgSO4, 1 mM CaCl2, 10 mM glucose, 5 mM BES, pH 7.3) saturated with carbogen (95% O2, 5% CO2).
Loading of the VNE with Rhod-2/AM (5–15 µM, 1 h) was performed in S1 solution under carbogen atmosphere at RT. Images were taken with an upright confocal laser scanning microscope (Leica TCS SP5 II, 20x water immersion objective HCX APO L20x/1.0w) equipped with Ar and He/Ne lasers. GFP was excited at 488 nm, Venus at 514 nm and Rhod-2 at 543 nm. Emission was measured at 490–520 nm (GFP), 520–600 nm (Venus) and 560–680 nm (Rhod-2). To minimise interference between Venus and Rhod-2 fluorescence, images were taken sequentially (sample interval per image, 3–4 s). Peptide stimuli were applied to the VNE surface with a local perfusion system which, when positioned close to the anterior end of the VNO, produced a continuous solution stream from rostral to caudal along the VNO axis. Data analysis was performed with the open source software ImageJ (NIH). Ca^2+ responses of individual dendritic knobs were normalised to the knob resting fluorescence level obtained before stimulation (ratio Fx/F0, Fx = actual fluorescence; F0 = mean fluorescence of 3–5 images before ligand application). Mapping was performed by superimposing Ca^2+ peak images onto images showing intrinsic fluorescence for specific markers.
Predator urine mix was composed of urine from mountain lion, coyote, bobcat, fox and marten (at equal volume ratios), purchased from Predatorpee (USA) and Kieferle (Germany). The fMet peptides were as described above. Stimuli were applied in S2 solution (140 mM NaCl, 5 mM KCl, 10 mM HEPES, 1 mM CaCl2, 1 mM MgCl2, 10 mM glucose, pH 7.3 with NaOH).

male mice = assay: Behavioural avoidance test, FEU vs. FEU supplemented with peptide (Fig. 8, Supplementary Fig. 4); assay type: in vivo, mouse; details: Fig. 8c, B6 mice
Procedure: These assays were adapted from behavioural procedures described previously[14],[60]. We tested avoidance by giving adult male mice (8–14 week old) of various genotypes a choice to freely investigate two types of chemical stimuli: FEU vs. FEU supplemented with a peptide. Mice were sexually naïve and not exposed to the test stimuli prior to the testing day. Mice were habituated for three days (40 min each day) to clean filter papers (2.5 cm diameter), each deposited in a sterile plastic culture dish and placed in opposite corners of the test cage (30 × 12 cm). After the third habituation period, the test subject was transferred into a new cage containing fresh filter papers/dishes with either of the two test stimuli. One filter paper was impregnated with 45 µl of fresh urine pooled from two sexually naïve female B6 mice (8–16 weeks old) in oestrus (FEU, female oestrous urine) and 5 µl physiological solution containing (in mM): NaCl, 130; KCl, 5; Na-Hepes, 10; CaCl2, 2; glucose, 10; pH = 7.4. For testing the effects of specific peptides, the second filter paper was impregnated with FEU supplemented with a given peptide (100 or 50 µM final concentration, dissolved in physiological solution). Direct physical contact was allowed. Behaviour was recorded for 10 min from the top of the cage. Mice were exposed only once to a given peptide solution, and were exposed to only one peptide stimulus per day. Stimuli were presented in randomised order. […] This investigative behaviour was quantified as the time spent in close contact with each filter paper, scored manually by an observer blind to the experimental conditions using Behavioural Observation Research Interactive Software (BORIS)[85]. Contact time was measured as the time during which the nose crossed the border of a petri dish containing impregnated filter paper. An avoidance index was calculated as (TP — aTU)/(aTP + aTU), with TP as the time an individual mouse investigated a FEU-peptide mixture, aTP as the average time of all tested mice investigating this stimulus and aTU as the average time of all mice investigating FEU without added peptide. Negative values represent avoidance and positive values represent attraction. For analysing investigation of sick conspecifics, B6 mice were injected either with LPS or PBS as described above. In total, 4 h post injection, these mice were anaesthetised with 165 mg/kg ketamine (Pharmacia GmbH, Berlin, Germany) and 11 mg/kg xylazine (Bayer Health Care, Leverkusen, Germany) and then used in behavioural tests.

mouse Fpr3 (Fpr-rs1) = molecular target: T1, mouse Fpr3 (Fpr-rs1) (Mus musculus, UniProt O08790); assay: Heterologous expression / high-throughput Ca2+ imaging agonist screen and sequence selectivity of Fpr3 (Fig. 1a, 2c-e, 2g, 2i); assay type: cell-based; details: mean of n = 3 experiments in triplicate (n = 5 for f-MKKFRW), Fpr3 + Gα16 HEK293T, Fluo-4/AM, FLIPR, buffer C1 pH 7.2, mock 0.059-0.060
T1 construct: expressed in transfected cells; host or cells: HEK293T (DSMZ # ACC-635), transient transfection with jetPEI
T1 sequence (O08790 1-351): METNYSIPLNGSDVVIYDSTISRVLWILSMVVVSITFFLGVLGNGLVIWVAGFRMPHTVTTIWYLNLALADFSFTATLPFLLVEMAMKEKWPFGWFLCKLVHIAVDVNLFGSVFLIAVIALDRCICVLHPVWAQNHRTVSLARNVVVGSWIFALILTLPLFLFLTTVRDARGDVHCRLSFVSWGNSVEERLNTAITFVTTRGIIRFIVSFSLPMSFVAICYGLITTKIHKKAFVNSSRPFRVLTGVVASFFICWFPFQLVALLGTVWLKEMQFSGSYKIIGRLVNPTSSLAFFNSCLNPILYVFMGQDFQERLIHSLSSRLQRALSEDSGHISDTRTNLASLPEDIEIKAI
Procedure: An Fpr3 gene subcloned from genomic DNA of C57BL/6J mice into pcDNA3.1 (Invitrogen) was used in heterologous experiments[21],[80]. HEK293T (DSMZ # ACC-635) cells were seeded at 20–30% confluence on poly-D-lysine-coated (10 µg/ml in PBS) black 96-well µCLEAR-Plates (Greiner Bio-One). Cells were transfected 24 h later using jetPEI™ (Polyplus-transfection SA) according to the manufacturer’s protocol for 96-well transfections. For Ca^2+ imaging experiments, 0.125 µg of DNA plasmid encoding Fpr3 were cotransfected with equal amounts of a plasmid encoding Gα16, a promiscuous G protein α-subunit. Ca^2+ signals to agonist stimulation were recorded 48 h post transfection using the Ca^2+ indicator dye Fluo-4/AM (Molecular Probes) and a fluorescence imaging plate reader (FLIPR) system (Molecular Devices). Cotransfection of a plasmid encoding Gα16 with an empty vector used to subclone Fpr3 gave no agonist-evoked Ca^2+ responses.
We used custom-made peptides with a length of 6–21 amino acids to screen for agonists. Sequences of fMet peptides were designed according to motifs present at the N-termini of 15,125 specific bacterial proteins as annotated in UniProt. Peptides were chemically synthesised, purified, and verified by mass spectroscopy (MALDI-TOF) by commercial suppliers. Purity of all peptides was >95%. Source, sequence and purity of each peptide are listed in Supplementary Data 1. Lyophilised peptides were routinely dissolved in the Ca^2+ imaging assay buffer C1 (130 mM NaCl, 10 mM HEPES, 5 mM KCl, 2 mM CaCl2, 5 mM glucose, pH 7.2) as 0.2–1 mM stock solutions and kept in small aliquots at −20 °C until use. […] The sequences of these peptides exist in proteins from the following bacterial strains[21]: Psychromonas ingrahamii that belongs to a marine ice water microbial community, Desulfotomaculum reducens that is found in deep freshwater lakes, and Pseudomonas grimontii, a plant pathogen. As mice are unlikely to encounter these strains in their natural habitat, these findings are probably not of biological relevance.

Substance | Ca2+ response, mean (mouse Fpr3 (Fpr-rs1); 3 µM) | Ca2+ response, mean (mouse Fpr3 (Fpr-rs1); 30 µM) | also measured
f-MKKFRWVVL [MgrB nonapeptide] |  |  | Fpeak ([1]; Fig. 4h, mean of individual knobs, n = 103 f-MKKFRW, 21 f-MKKFRWVVL, 68 MKKFRW, 26 f-MGFFIS, 63 PUM): 0.64; Ca2+ responses in VSNs, in words ([1]; VNE of adult B6 mice, f-MKKFRW 1 µM): VSNs that recognised f-MKKFRW responded also; Ca2+ response of f-MKKFRW-responsive VSN knobs ([1]; adult B6 mice, mean ± s.d., N = 103 (f-MKKFRW), 21 (f-MKKFRWVVL), 68 (MKKFRW), 26 (f-MGFFIS), 63 (PUM), Fig. 4h): 0.64 ± 0.45
f-MEQQNK [synthesized fMet peptide] | 0.047 ∆F/F | 0.050 ∆F/F | Preference Index (male mice; individual values): -0.06064 and -0.05774 and -0.1328 and -0.09632 and 0.7296 and -0.0445 and 0.1064 and -0.1977 and 0.2779 and -0.1553; Preference Index (male mice; mean, n = 11 f-MKKFRW, 11 MKKFRW, 10 f-MGFFIS, 10 f-MEQQNK, FEU control -0.002): 0.0369
f-MAYPFQ [synthesized fMet peptide] | 0.059 ∆F/F | 0.061 ∆F/F | 
f-MFIYYCK [synthesized fMet peptide] | 0.053 ∆F/F | 0.042 ∆F/F | 
f-MNKKLL [f-MNKLL, synthesized fMet peptide] | 0.038 ∆F/F | 0.039 ∆F/F | 
f-MKKFLL [synthesized fMet peptide] | 0.052 ∆F/F | 0.050 ∆F/F | 
f-MKKLLNKIV [synthesized fMet peptide] | 0.056 ∆F/F | 0.054 ∆F/F | 
f-MLNKKKRGN [synthesized fMet peptide] | 0.056 ∆F/F | 0.058 ∆F/F | 
f-MVKIIF [synthesized fMet peptide] | 0.045 ∆F/F | 0.054 ∆F/F | 
f-MKKWRW [synthesized fMet peptide] | 0.056 ∆F/F | 0.063 ∆F/F | 
